Experimental findings from patent US7718653B2, “Pyrimidine derivatives for inhibiting Eph receptors” (AstraZeneca AB, priority 2007, dated 2010) are described below.

What is called IC50 is the concentration at which inhibition is half-maximal.

One assay addresses T1, recombinant EphB4 (Homo sapiens, UniProt P54760).
T1 construct: amino acids 563-987; Swiss-Prot Acc; No. P54760; purchased ProQinase GmbH 0178-0000-3
T1 sequence (P54760 563-987): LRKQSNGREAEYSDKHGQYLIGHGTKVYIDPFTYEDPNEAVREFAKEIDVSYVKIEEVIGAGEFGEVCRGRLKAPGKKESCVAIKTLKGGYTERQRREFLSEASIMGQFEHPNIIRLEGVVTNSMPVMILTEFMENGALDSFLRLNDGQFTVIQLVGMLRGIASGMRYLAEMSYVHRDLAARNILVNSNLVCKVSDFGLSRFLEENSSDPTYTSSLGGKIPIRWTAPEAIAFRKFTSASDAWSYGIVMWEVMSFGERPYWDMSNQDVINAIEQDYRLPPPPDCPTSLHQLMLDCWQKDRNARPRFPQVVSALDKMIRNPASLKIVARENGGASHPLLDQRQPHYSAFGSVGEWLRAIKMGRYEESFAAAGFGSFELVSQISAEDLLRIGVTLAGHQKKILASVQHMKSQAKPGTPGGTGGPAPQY
Kind of assay: In vitro EphB4 enzyme assay (Alphascreen, phosphorylation of biotin-poly-GAT). The class given is biochemical. The following applies: * = tested once only, read-out: EphB4 enzyme assay Mean IC50 value. Here is the method: A) In vitro EphB4 Enzyme Assay
(§1) This assay detects inhibitors of EphB4-mediated phosphorylation of a polypeptide substrate using Alphascreen™ luminescence detection technology. Briefly, recombinant EphB4 was incubated with a biotinylated-polypeptide substrate (biotin-poly-GAT) in presence of magnesium-ATP. The reaction was stopped by addition of EDTA, together with streptavidin-coated donor beads which bind the biotin-substrate containing any phosphorylated tyrosine residues. Anti-phosphotyrosine antibodies present on acceptor beads bind to phosphorylated substrate, thus bringing the donor & acceptor beads into close proximity. Subsequent excitation of the donor beads at 680 nm generated singlet oxygen species that interact with a chemiluminescer on the acceptor beads, leading to light emission at 520-620 nm. The signal intensity is directly proportional to the level of substrate phosphorylation and thus inhibition is measured by a decrease in signal.
Aqueous Compound Preparation:
Acoustic Compound Preparation:
To ensure that each well contained a total of 120 nl DMSO the wells were all backfilled as required. […] The test range of compounds was 100× the required final concentration.
Assay plates were then incubated at room temperature for 1 hour.
For assays using compounds prepared via acoustic dispensing, the assay mix was adjusted such that the final assay volume of 12 ul contained the same concentration of reagent as 10 ul of assay mix used when aqueous compounds were tested.
The plates were sealed under natural lighting conditions, wrapped in aluminium foil and incubated in the dark for a further 20 hours.
The resulting assay signal was determined on the Perkin Elmer EnVision plate reader. The minimum value was subtracted from all values, and the signal plotted against compound concentration to generate IC50 data. The method used to generate the compound dilutions was recorded with the IC50 value in the database.
A general note: Alpha assays give light when donor and acceptor beads are brought close together.

The next assay deals with T2, recombinant EphA2 (Homo sapiens, UniProt P29317).
T2 construct: amino acids 591-976; Swiss-Prot Acc; No. P29317; purchased ProQinase GmbH 0368-0000-1
T2 sequence (P29317 591-976): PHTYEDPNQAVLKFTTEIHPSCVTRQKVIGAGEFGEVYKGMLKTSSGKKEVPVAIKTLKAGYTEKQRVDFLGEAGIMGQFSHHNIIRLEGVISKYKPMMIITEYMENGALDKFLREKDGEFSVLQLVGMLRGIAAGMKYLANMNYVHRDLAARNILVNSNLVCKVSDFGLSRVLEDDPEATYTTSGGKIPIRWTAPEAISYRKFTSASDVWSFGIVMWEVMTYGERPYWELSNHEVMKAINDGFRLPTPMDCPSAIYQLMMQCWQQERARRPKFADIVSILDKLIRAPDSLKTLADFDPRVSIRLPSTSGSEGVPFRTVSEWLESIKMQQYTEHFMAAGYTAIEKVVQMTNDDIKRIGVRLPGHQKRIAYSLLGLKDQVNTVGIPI
Kind of assay: In vitro EphA2 enzyme assay (Alphascreen, phosphorylation of biotin-poly-GAT). The class given is biochemical. Here is the method:
C) In vitro EphA2 Enzyme Assay
as §1, with “EphA2-mediated” for “EphB4-mediated”, “EphA2” for “EphB4”
Test compounds were prepared as 10 mM stock solutions in DMSO (Sigma-Aldrich Company Ltd, Gillingham, Dorset SP8 4XT Catalogue No. 154938) and serially diluted with 5% DMSO to give a range of test concentrations at 6× the required final concentration. […]
The resulting assay signal was determined on the Perkin Elmer EnVision plate reader. […]

[1] abbreviates: Method of compound preparation: Echo (acoustic dispensing).
[2] abbreviates: Method of compound preparation: Genesis (aqueous compound preparation).

SMILES strings stand for the structures. Where two headings read alike, the source gives them in different places.

Consider `CN(c1ccnc(Nc2ccnc(N3CCOCC3)c2)n1)c1cccc2[nH]ncc12` [Example 4, N′-(1H-indazol-4-yl)-N′-methyl-N-(2-morpholin-4-ylpyridin-4-yl)pyrimidine-2,4-diamine], for which the IC50 turned out to be 3 nM on recombinant EphB4 (setting [1]) and 146 nM on recombinant EphB4 (setting [2]). For `CN(c1ccnc(Nc2cc(N3CCOCC3)nc(N3CCOCC3)c2)n1)c1c(Cl)ccc2c1OCO2` [Example 2, N4-(5-chlorobenzo[d][1,3]dioxol-4-yl)-N2-(2,6-dimorpholinopyridin-4-yl)-N4-methylpyrimidine-2,4-diamine], the half-maximal inhibitory concentration (IC50) on recombinant EphB4 (setting [2]) stood at 605 nM. In the case of `CN(c1ccnc(Nc2cc(Cl)nc(N3CCOCC3)c2)n1)c1cccc2[nH]ncc12` [Example 8, N-(2-chloro-6-morpholin-4-yl-pyridin-4-yl)-N′-(1H-indazol-4-yl)-N′-methyl-pyrimidine-2,4-diamine], the IC50 on recombinant EphB4 (setting [1]) worked out at 4 nM; at recombinant EphB4 (setting [2]), 445 nM. Turning to `CN(c1ccnc(Nc2cc(Cl)cc(N3CCOCC3)n2)n1)c1cccc2[nH]ncc12` [Example 6, N-(4-chloro-6-morpholin-4-yl-pyridin-2-yl)-N′-(1H-indazol-4-yl)-N′-methyl-pyrimidine-2,4-diamine], the values for the IC50 at recombinant EphB4 (setting [1]) and at recombinant EphB4 (setting [2]) were 7 nM and 973 nM, respectively. With `Clc1ccc2c(c1Nc1ccnc(Nc3cccc(N4CCOCC4)n3)n1)OCO2` [Example 10, N′-(5-chloro-1,3-benzodioxol-4-yl)-N-(6-morpholino-2-pyridyl)pyrimidine-2,4-diamine], the IC50 on recombinant EphA2 came out at 566 nM; on recombinant EphB4 (setting [1]), 64 nM; on recombinant EphB4 (setting [2]), 817 nM. As for `Clc1ccc2c(c1Nc1ccnc(Nc3cc(N4CCOCC4)nc(N4CCOCC4)c3)n1)OCO2` [Example 1, N4-(5-chlorobenzo[d][1,3]dioxol-4-yl)-N2-(2,6-dimorpholinopyridin-4-yl)pyrimidine-2,4-diamine], at recombinant EphB4 (setting [2]), the IC50 turned out to be 501 nM. As for `Cc1nc(Nc2nccc(Nc3c(Cl)ccc4c3OCO4)n2)cc(N2CCN(C)CC2)n1` [Example 12, N′-(5-chloro-1,3-benzodioxol-4-yl)-N-[2-methyl-6-(4-methylpiperazin-1-yl)pyrimidin-4-yl]pyrimidine-2,4-diamine], the IC50 on recombinant EphB4 (setting [2]) was 6440 nM. `Clc1ccc2c(c1Nc1ccnc(Nc3cc(N4CCOCC4)ccn3)n1)OCO2` [Example 9, N′-(5-chloro-1,3-benzodioxol-4-yl)-N-(4-morpholino-2-2pyridyl)pyrimidine-2,4-diamine]: the IC50 on recombinant EphA2 stood at 131 nM; at recombinant EphB4 (setting [1]) it was 52 nM; at recombinant EphB4 (setting [2]) it was 170 nM.
